Test [1] relates to ZW658 strain. Briefly: Tube fermentation of ZW658 on glucose and xylose with various sugar alcohols (Example 13). It counts as cell-based, Zymomonas mobilis. The following applies: sugar alcohol in the medium vs control. The procedure:
(§1) Approximately 1 ml of well mixed sample was obtained from flask or fermentor. First the sample absorbance was measured directly with a spectrophotometer (Amersham Biosciences Ultrospec 3300pro, GE Healthcare, Piscataway, N.J., USA). If the reading was lower than 0.6 unit, no dilution was needed. If the reading was higher than 0.6 unit, the sample was diluted with culture medium until the actual reading was in the range of 0.1 to 0.6 unit. The original OD was calculated from the dilution ratio and the actual reading.
(§2) The analysis of sugars, acetate, ethanol, and other by-products was done with an Agilent 1100 series HPLC and Agilent ChemStation software for LC 3D. The column was BioRad Aminex HPX-87H(HPLC Organic Analysis Column 125-0140) with BioRad Micro-Guard Cartridge Cation-H (125-0129). The operating conditions were:
In eight sterilized 50 ml screw-cap centrifuge tubes (Cat. No. 21008-178, VWR International, USA), 200 μl of ZW658 strain glycerol stock at OD600 of approximately 10 was inoculated into each flask with 25 ml of aqueous solution containing 92 g/L glucose, 82 g/L xylose, 10 g/L yeast extract (YE), 2 g/L KH2PO4, 1 g/L MgSO4.7H2O, and either 10 mM of sorbitol, arabitol, adonitol (also called ribitol), or galactitol; or 50 mM of arabitol, adonitol, or galactitol. The control had no sugar alcohol added. Initial pH was adjusted to 5.5 with 4 N H3PO4 solution. Fermentation was conducted at 33° C. and pH was not controlled. Samples were taken periodically between 0 and 40 hr. Samples were filtered through 0.22 micron filters, and the filtrates were analyzed by HPLC as described in General Methods for glucose, xylose, xylitol, and ethanol. Samples were diluted with medium (as described in General Methods) and the OD600 was measured to monitor cell growth. Results of growth and glucose utilization are given in FIGS. 20A and 20B, respectively. Results of xylose utilization and ethanol production are given in FIGS. 21A and 21B, respectively. Cultures with sorbitol or galactitol grew much faster and better than the control. Cultures with adonitol also grew better. After 40 hours, the OD600 were 7 to 8, for cultures supplemented with sorbitol or galactitol; the OD600 were about 5, for cultures supplemented with adonitol; while the OD600 were less than 1 for other cultures. […] The presence of sorbitol, galactitol, or adonitol allowed more xylose utilization, without production of xylitol.

Test [2] has as its system ZW658 strain. The test can be described thus: 1-liter fermentor, ZW658 on high concentration glucose and xylose with sorbitol or glutamate. It counts as cell-based, Zymomonas mobilis. How it is done:
as §1, §2
Glycerol stock of seed frozen at −80° C. was thawed, then inoculated into sterile culture tubes with mixture of 60 g/L glucose, 20 g/L xylose, 10 g/L yeast extract (YE), 10 g/L KH2PO4, 2 g/L (NH4)2SO4, and 1 g/L MgSO4. Initial pH was adjusted to 5.5 with 4 N KOH. This revival culture was grown statically overnight at 37° C. It was transferred into shake flasks with 75 g/L glucose, 25 g/L xylose, 10 g/L yeast extract (YE), 10 g/L KH2PO4, 2 g/L (NH4)2SO4, and 1 g/L MgSO4. Initial pH was adjusted to 5.5 with 4 N KOH. Growth was monitored by measuring OD600. When the OD reached approximately 5, a certain volume of the seed was withdrawn into a sterile syringe for inoculation.
In a sterilized 1-liter fermentor (BIOSTAT® B-DCU system, Sartorius BBI System Inc., Bethlehem, Pa., USA), 50 ml of ZW658 strain seed culture at Optical Density of approximately 5 (measured at 600 nm) was inoculated into 450 ml of aqueous solution containing sugars and medium. The final mixed broth contained 100 g/L glucose, 85.1 g/L xylose, 10 g/L yeast extract (YE), 2 g/L KH2PO4, and 10 mM sorbitol. pH was adjusted to 5.5 with 4 N KOH solution. Mixing speed was set at 150 rpm. Fermentation was conducted at 33° C. and pH 5.5. Samples were taken periodically. Samples were filtered through 0.22 micron filters, and the filtrates were analyzed by HPLC as described in General Methods for compounds including glucose, xylose, ethanol, and acetate. Samples were also diluted with medium (as described in General Methods) and the OD600 was measured to monitor cell growth. […] The by-product xylitol concentration was 0.67 g/L at 29 hr, and increased to 0.95 g/L at 64 hr.
In a sterilized 1-liter fermentor (BIOSTAT® B-DCU system, Sartorius BBI System Inc., Bethlehem, Pa., USA), 50 ml of ZW658 strain seed culture at OD600 of approximately 5 was inoculated into 450 ml of aqueous solution containing sugars and medium. The final mixed broth contained 98.0 g/L glucose, 81.2 g/L xylose, 10 g/L yeast extract (YE), 2 g/L KH2PO4, and 10 mM potassium glutamate. pH was adjusted to 5.5 with 4 N KOH solution. Mixing speed was set at 150 rpm. Fermentation was conducted at 33° C. and pH 5.5. Samples were taken periodically. Samples were filtered through 0.22 micron filters, and the filtrates were analyzed by HPLC as described in General Methods for compounds including glucose, xylose, xylitol, ethanol, and acetic acid. Samples were also diluted with medium (as described in General Methods) and the OD600 was measured to monitor cell growth. […] However, xylose was not well-utilized, cell growth and ethanol production were reduced as compared to that in the presence of sorbitol (Example 4), and xylitol production increased.

Setting [3] is: after 29 hours, 100 g/L glucose, 85.1 g/L xylose, 10 mM sorbitol, 33° C., pH 5.5.

Consider `OC[C@@H](O)[C@@H](O)[C@H](O)[C@@H](O)CO` [sorbitol], for which, in the test with ZW658 strain [1], the ethanol production result is on record as “ethanol production was also better” and the xylose utilization result was “More xylose was utilized”. The “OD600 cells grew to” value with ZW658 strain [2] (100 g/L glucose, 85.1 g/L xylose, 10 mM sorbitol, 33° C., pH 5.5) came out at 13. Further, the “reduction of xylitol with addition of sorbitol” value with ZW658 strain [2] (Examples 4 and 5, with vs without sorbitol) is “about 3 fold”. In the test on ZW658 strain [2] (setting [3]), the ethanol concentration is reported as 83.9 g/L, the glucose concentration is listed as 0 g/L and the xylose concentration was 2.08 g/L. The by-product xylitol concentration in the test on ZW658 strain [2] (at 29 hr, 10 mM sorbitol) was found to be 0.67 g/L. Further, in the test with ZW658 strain [2] (at 64 hr, 10 mM sorbitol), the by-product xylitol concentration is recorded as 0.95 g/L. For the same molecule, the “time to complete utilization of 85 g/L xylose” value in the test with ZW658 strain [2] (sugars mixture with 100 g/L glucose, no acetate, in the presence of sorbitol) is at most 30 h. Moreover, in the test on ZW658 strain [2] (with vs without 10 mM sorbitol), the effect on growth result is “doubled the growth” and the “effect on lag time” value is recorded as “significantly reduced the lag time”.

The values above are taken from patent US7629156B2, “Ethanol production in fermentation of mixed sugars containing xylose” (E.I. du Pont de Nemours and Company, priority 2006, dated 2009).
